Like-named read-outs stand apart in the source and are kept apart here.
Legend:
[1] = test system: RDES Ewing sarcoma cell line; experiment: 72 hour cytotoxicity, RDES; format: cell-based
Protocol: (§1) The cytotoxicity of a subgroup of the MTM SA analogues was tested against various Ewing sarcoma cell lines and non-Ewing sarcoma cell lines over a 72 hour period. Each analogue was checked individually with a range of concentrations to determine the IC50 of the molecule in actively growing cell cultures.

[2] = 72 hour cytotoxicity, RH30; format: cell-based; settings: Ewing sarcoma cell line RH30, 72 hour; read-out: IC50 (nM) RH 30
Protocol: as §1

Ewing cell lines = experiment: In vitro efficacy, GI50 (72-hr) in Ewing cell lines; format: cell-based; settings: Ewing cell lines (n=8)
[3] = molecular target: T1, EWS-FLI1 promoter occupancy upstream from Nr0b1, Tgfbr2, and Rcor1 genes in TC32 cells (Homo sapiens, UniProt Q01543+Q01844); experiment: EWS-FLI1 promoter occupancy by ChIP-RTPCR; format: cell-based
T1 construct: containing the 5′ region of EWS (Ewing sarcoma breakpoint region 1) and the 3′ ETS region of Fli-1; N-terminal part of EWS (EWSR1, Q01844), natural fusion partner from the translocation; endogenous in cells; host or cells: TC32 Ewing sarcoma cells
Protocol: (§2) Studies were conducted using MTM and lead analogs (mithramycin-SK (MTM-SK), mithramycin-SA-tryptophan (MTM-SA-Trp), and mithramycin-SA-phenylalanine (MTM-SA-Phe)). EWS-FLI1 promoter occupancy was investigated using chromatin immune precipitation real time PCR (ChIP-RTPCR). The effect of drug treatment on expression of genes controlled by EWSFLI1 was evaluated by quantitative real-time PCR (qRT-PCR) (FIG. 11). The effect of treatment with 100 nM of drug for 24 hours on cell cycle distribution was also compared among analogs (FIG. 12(b)). […] In addition, the maximum tolerated dose (MTD) and the effect of treatment on plasma total-calcium were used to assess relative toxicity in mice.
(§3) EWS-FLI1 promoter occupancy upstream from Nr0b1, Tgfbr2, and Rcor1 genes was evaluated in Ewing sarcoma cells (TC32 cells) by ChIP-RTPCR. […] (FIG. 11). […] (FIG. 12(a)). Furthermore, the effect of drug treatment appears to lead to differences in cell-cycle progression. […] (FIG. 12(b)).

[4] = test system: ES-2 Ewing sarcoma cell line; experiment: 72 hour cytotoxicity, ES-2; format: cell-based; settings: Ewing sarcoma cell line ES-2, 72 hour
Protocol: as §1

[5] = test system: ES-7 Ewing sarcoma cell line; experiment: 72 hour cytotoxicity, ES-7; format: cell-based; settings: Ewing sarcoma cell line ES-7, 72 hour
Protocol: as §1

[6] = test system: TC32 Ewing sarcoma cell line; experiment: 72 hour cytotoxicity, TC32; format: cell-based; settings: Ewing sarcoma cell line TC32, 72 hour
Protocol: as §1

[7] = test system: A549, human non-small cell lung cancer cells; experiment: 72 hour cytotoxicity, A549 (resazurin); format: cell-based; settings: non-Ewing sarcoma cell line A549, 72 hour
Protocol: The cytotoxic effects of the side chain modifications of SA were investigated in order to determine whether the modification were beneficial to the drug structure. All cytotoxicity assays were performed with A549, human non-small cell lung cancer cells. A549 cells were cultured as specified from ATCC at 37° C., 5% CO2. The cells were added to a 96 well plate (5,000 cells/well) and permitted to attach for 24 h. After 24 h culture media were replaced with the side chain modified MTM SA derivative containing media at differing concentrations. The cells were incubated with the drug containing media for 72 hrs total (n=8). Cell viability was determined using a resazurin assay that signifies mitochondrial metabolic activity in living cells. […] of a 1 mM resazurin solution in PBS was added to the control and analogue-treated cells at the end of the treatment period. Cell viability was determined three hours later by reading the fluorescence at 560 nm (Ex)/590 nm (Em). The fluorescence signals were quantified using a Spectramax M5 plate reader (Molecular Devices) equipped with a SoftMaxPro software. Cytotoxicity was determined by calculating the half maximal inhibitory concentration (IC50) of each sample.
as §1

[8] = test system: ES-4 Ewing sarcoma cell line; experiment: 72 hour cytotoxicity, ES-4; format: cell-based; settings: Ewing sarcoma cell line ES-4, 72 hour
Protocol: as §1

[9] = test system: U118 non-Ewing sarcoma cell line; experiment: 72 hour cytotoxicity, U118; format: cell-based; settings: non-Ewing sarcoma cell line U118, 72 hour
Protocol: as §1

[10] = test system: TC71 Ewing sarcoma cell line; experiment: 72 hour cytotoxicity, TC71; format: cell-based; settings: Ewing sarcoma cell line TC71, 72 hour
Protocol: as §1

[11] = test system: SK-ES-1 Ewing sarcoma cell line; experiment: 72 hour cytotoxicity, SK-ES-1; format: cell-based; settings: Ewing sarcoma cell line SK-ES-1, 72 hour
Protocol: as §1

[12] = test system: ES-3 Ewing sarcoma cell line; experiment: 72 hour cytotoxicity, ES-3; format: cell-based; settings: Ewing sarcoma cell line ES-3, 72 hour
Protocol: as §1

[13] = test system: VCaP non-Ewing sarcoma cell line; experiment: 72 hour cytotoxicity, VCaP; format: cell-based
Protocol: as §1

[14] = test system: OVCAR-8 non-Ewing sarcoma cell line; experiment: 72 hour cytotoxicity, OVCAR-8; format: cell-based; settings: non-Ewing sarcoma cell line OVCAR-8, 72 hour
Protocol: as §1

[15] = test system: ES-8 Ewing sarcoma cell line; experiment: 72 hour cytotoxicity, ES-8; format: cell-based; settings: Ewing sarcoma cell line ES-8, 72 hour
Protocol: as §1

[16] = test system: A673 Ewing sarcoma cell line; experiment: 72 hour cytotoxicity, A673; format: cell-based; settings: Ewing sarcoma cell line A673, 72 hour
Protocol: as §1

[17] = test system: HCT-116 non-Ewing sarcoma cell line; experiment: 72 hour cytotoxicity, HCT-116; format: cell-based; settings: non-Ewing sarcoma cell line HCT-116, 72 hour
Protocol: as §1

[18] = test system: genes controlled by EWS-FLI1 in TC32 cells; experiment: Expression of genes controlled by EWS-FLI1 by qRT-PCR; format: cell-based; settings: 6 hours, dose dependent
Protocol: FIG. 11A, FIG. 11B, FIGS. 11C, 11D, and 11E provide a series of graphs showing that MTM analogs have increased cytoxicity and distinct cell cycle distribution in Ewing sarcoma. The graphs show relative gene expression in TC32 cells treated with MTM analogs. Three genes controlled by the EWS-FLI1 transcription factor were investigated by qRT-PCR at four different treatment concentrations for 6 hours. CCK served as a negative control.
as §2, §3

[19] = test system: 5838 Ewing sarcoma cell line; experiment: 72 hour cytotoxicity, 5838; format: cell-based; settings: Ewing sarcoma cell line 5838, 72 hour
Protocol: as §1

[20] = test system: DU145 non-Ewing sarcoma cell line; experiment: 72 hour cytotoxicity, DU145; format: cell-based; settings: non-Ewing sarcoma cell line DU145, 72 hour
Protocol: as §1

[21] = test system: Ewing sarcoma (TC32, 5838, SKES1) and non-Ewing (A459 (lung) and PC3 (prostate)) cancer cell lines; experiment: Selectivity assay, Ewing sarcoma versus non-Ewing cell panel (72 hr cytotoxicity)
[22] = test system: C42 non-Ewing sarcoma cell line; experiment: 72 hour cytotoxicity, C42; format: cell-based; settings: non-Ewing sarcoma cell line C42, 72 hour
Protocol: as §1

[23] = test system: PC3 non-Ewing sarcoma cell line; experiment: 72 hour cytotoxicity, PC3; format: cell-based; settings: non-Ewing sarcoma cell line PC3, 72 hour
Protocol: as §1

TC32 cells = experiment: Cell cycle distribution, FACS analysis; format: cell-based; settings: 100 nM of drug for 24 hours
Protocol: FIG. 12(b) is a FACs analysis of TC32 cells treated with 100 nM of drug for 24 hours.
as §2, §3

[24] = test system: several cancer cell lines; settings: cited from earlier work

T1 sequence (Q01844+Q01543 fused): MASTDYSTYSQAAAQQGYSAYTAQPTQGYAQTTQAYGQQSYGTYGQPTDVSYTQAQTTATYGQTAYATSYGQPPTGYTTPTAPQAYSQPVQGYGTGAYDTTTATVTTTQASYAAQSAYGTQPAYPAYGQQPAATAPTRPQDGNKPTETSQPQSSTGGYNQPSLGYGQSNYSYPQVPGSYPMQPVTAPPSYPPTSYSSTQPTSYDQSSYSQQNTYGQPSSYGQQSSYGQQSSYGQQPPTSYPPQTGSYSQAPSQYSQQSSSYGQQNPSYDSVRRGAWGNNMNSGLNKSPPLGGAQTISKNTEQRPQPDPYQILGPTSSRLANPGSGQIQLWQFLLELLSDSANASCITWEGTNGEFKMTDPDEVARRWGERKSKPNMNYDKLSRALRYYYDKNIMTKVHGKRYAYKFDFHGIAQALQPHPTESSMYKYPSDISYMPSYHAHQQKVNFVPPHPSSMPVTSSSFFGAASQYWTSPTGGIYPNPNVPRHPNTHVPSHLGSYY

Q: Which results are given for `COC(=O)C(Cc1cccc2[nH]ccc12)NC(=O)[C@@H](OC)[C@@H]1Cc2cc3cc(OC4CC(OC5CC(O)C(O)C(C)O5)C(O)C(C)O4)c(C)c(O)c3c(O)c2C(=O)[C@H]1OC1CC(OC2CC(OC3CC(C)(O)C(O)C(C)O3)C(O)C(C)O2)C(O)C(C)O1` (some centres unmarked) [MTMSA-Trp]?
A: IC50 ([1]; RD-ES): 39 nM; IC50 [2]: 48 nM; potency (GI50) among Ewing cell lines compared to other analogs (Ewing cell lines): relatively higher potency (lower GI50); effect on FLI1 binding to promoters (ChIP-RTPCR) [3]: the most destabilizing; IC50 [4]: 63 nM; IC50 [5]: 41 nM; IC50 ([6]; Homo sapiens, TC-32): 18 nM; IC50 ([7]; Homo sapiens): 87 nM; IC50 [8]: 33 nM; IC50 [9]: 56 nM; IC50 ([10]; TC-71): 34 nM; IC50 ([11]; Homo sapiens, SK-ES1): 38 nM; IC50 [12]: 64 nM; IC50 ([13]; Homo sapiens): 20 nM; IC50 ([14]; Homo sapiens): 72 nM; IC50 [15]: 40 nM; IC50 ([16]; Homo sapiens): 44 nM; IC50 ([17]; Homo sapiens): 23 nM; rank-order of efficiency of mRNA down-regulation (qRT-PCR) [18]: MTM-SA-Trp>MTM=MTM-SK; IC50 [19]: 10 nM; IC50 ([20]; Homo sapiens, DU-145): 31 nM; selectivity against Ewing sarcoma cells relative to non-Ewing cells ([21]; FIG. 9, right panel): 9 fold; more potent than MTM ([21]; against Ewing sarcoma cells, relative to MTM): about 3 fold; higher selectivity than MTM against Ewing sarcoma relative to non-Ewing cell lines ([21]; relative to MTM, 72 hr): 3 fold; IC50 [22]: 96 nM; IC50 [23]: 45 nM; cell cycle distribution (TC32 cells): increased S-phase accumulation

Q: What does the source list for `COC(=O)[C@H](Cc1ccccc1)NC(=O)[C@@H](OC)[C@@H]1Cc2cc3cc(O[C@H]4C[C@@H](O[C@H]5C[C@@H](O)[C@H](O)[C@@H](C)O5)[C@H](O)[C@@H](C)O4)c(C)c(O)c3c(O)c2C(=O)[C@H]1O[C@H]1C[C@@H](O[C@H]2C[C@@H](O[C@H]3C[C@](C)(O)[C@H](O)[C@@H](C)O3)[C@H](O)[C@@H](C)O2)[C@H](O)[C@@H](C)O1` [MTMSA-Phe]?
A: IC50 [1]: 94 nM; IC50 [2]: 136 nM; IC50 [4]: 182 nM; IC50 [5]: 61 nM; IC50 [7]: 398 nM; IC50 [8]: 35 nM; IC50 [12]: 363 nM; IC50 [13]: 32 nM; IC50 [15]: 59 nM; IC50 [16]: 109 nM; IC50 [17]: 21 nM; potency and selectivity in killing of Ewing sarcoma cells ([21]; compared with other MTM SA derivatives, FIG. 10): even more potent and highly selective in killing of Ewing sarcoma cells than other MTM SA derivatives

Q: Which IC50 [1] does the source give for `CO[C@@H]([C@@H]1Cc2cc3cc(O[C@H]4C[C@@H](O[C@H]5C[C@@H](O)[C@H](O)[C@@H](C)O5)[C@H](O)[C@@H](C)O4)c(C)c(O)c3c(O)c2C(=O)[C@H]1O[C@H]1C[C@@H](O[C@H]2C[C@@H](O[C@H]3C[C@](C)(O)[C@H](O)[C@@H](C)O3)[C@@H](O)[C@@H](C)O2)[C@H](O)[C@@H](C)O1)[C@@H](O)C(C)=O` [MTMSK, reference compound] here?
A: The IC50 was 40 nM.

Q: What about the IC50 [2] of the same molecule?
A: The IC50 was 62 nM.

Q: What about the “effect on FLI1 binding to promoters (ChIP-RTPCR)” value [3] of the same molecule?
A: The value was “mostly stabilize FLI1”.

Q: What about the IC50 [4] of the same molecule?
A: The IC50 was 39 nM.

Q: And the “activity compared to the parent MTM” value [24]?
A: The value was “increased activity”.

Q: And the IC50 [5]?
A: Its IC50 is 42 nM.

Q: What about the IC50 ([6]; read-out: IC50 (nM) TC 32) of the same molecule?
A: Its IC50 is 23 nM.

Q: What about the IC50 [7] of the same molecule?
A: Its IC50 is 30 nM.

Q: What about the IC50 [8] of the same molecule?
A: Its IC50 is 32 nM.

Q: What about the IC50 [10] of the same molecule?
A: The IC50 was 31 nM.

Q: And the IC50 [11]?
A: Its IC50 is 25 nM.

Q: What about the IC50 [12] of the same molecule?
A: The IC50 was 56 nM.

Q: And the IC50 [13]?
A: The IC50 was 36 nM.

Q: What about the IC50 [14] of the same molecule?
A: Its IC50 is 29 nM.

Q: And the IC50 [15]?
A: The IC50 was 44 nM.

Q: And the IC50 [16]?
A: The IC50 was 37 nM.

Q: And the IC50 [17]?
A: The IC50 was 31 nM.

Q: And the “rank-order of efficiency of mRNA down-regulation (qRT-PCR)” value [18]?
A: Its value is “MTM-SA-Trp>MTM=MTM-SK”.

Q: And the IC50 [19]?
A: Its IC50 is 23 nM.

Q: What about the IC50 ([20]; read-out: IC50 (nM) DU 145) of the same molecule?
A: Its IC50 is 32 nM.

Q: What about the IC50 [22] of the same molecule?
A: Its IC50 is 89 nM.

Q: What about the IC50 [23] of the same molecule?
A: Its IC50 is 37 nM.

Q: And the cell cycle distribution (TC32 cells)?
A: The cell cycle distribution was “primarily in G1/G2 phase”.

From US9447135B2, “Semi-synthetic mithramycin derivatives with anti-cancer activity” (UNIVERSITY OF KENTUCKY RESEARCH FOUNDATION, priority 2012, dated 2016)
